From patent publication US7279321B2, “Methods for increasing the resistance of a host cell to aromatic carboxylic acids” (priority 2003, dated 2007)
≈ marks a conversion by molar mass, not a printed value.

How the values were obtained:
Type in all cases: cell-based
E. coli strain MG1655 = assay: pHBA zone of growth inhibition on solidified Vogel-Bonner medium; conditions: sodium salt of pHBA 80 μmoles/disk, Vogel-Bonner with glucose
Method: (§4) This was tested by measuring the size of the zone of growth inhibition and scoring the degree of growth within the zones resulting from the sodium salt of pHBA (80 μmoles/disk) on solidified Vogel-Bonner medium with glucose as the carbon source (Table 5).

[1] = tested on: E. coli strain DPD2433 (yhcS−); assay: as above; conditions: sodium salt of pHBA 80 μmoles/disk, Vogel-Bonner with glucose
Method: as §4

[2] = tested on: E. coli strain DPD2455 (DPD2433 yhcS− with pDEW673 yhcQP); conditions: sodium salt of pHBA 80 μmoles/disk
Excerpt: (§1) Plasmids pDEW668, pDEW673, pDEW675, and a control plasmid, pTrcHis2TOPO®/lacZ (Invitrogen), were moved by transformation to E. coli strain DPD2433, selecting for Ampicillin resistance, to generate strains DPD3317, DPD2455, DPD2457, and DPD3316, respectively.

[3] = tested on: E. coli strain DPD2457 (DPD2433 yhcS− with pDEW675 yhcRQ); conditions: sodium salt of pHBA 80 μmoles/disk
Excerpt: as §1

[4] = tested on: E. coli strain DPD3316 (DPD2433 yhcS− with pTrcHis2TOPO®/lacZ control); conditions: sodium salt of pHBA 80 μmoles/disk
Excerpt: as §1

[5] = tested on: E. coli strain DPD3317 (DPD2433 yhcS− with pDEW668 yhcRQP); conditions: sodium salt of pHBA 80 μmoles/disk
Excerpt: as §1

[6] = tested on: E. coli strain DPD2459 (MG1655 + with pKK223-3 control plasmid); assay: pHBA zone of growth inhibition, plasmid-carrying strains (Table 9)
Excerpt: as §1
(§2) The YhcP-Left primer was designed to contain a HindIII site and the YhcP-Right primer was designed to contain an EcoRI site for directional cloning of the resultant PCR product. […] The product of the PCR reaction was digested with restriction enzymes EcoRI and HindIII. The restriction digestion also contained pKK223-3 at an approximate molar ratio of 2:1 (insert:vector). Following incubation at 37° C. for 1.5 hours, the enzymes were inactivated by incubation at 65° C. for 20 minutes. The enzymes were subsequently removed by use a Qiaquick PCR purification kit (Qiagen) according to the vendor's instructions. The purified restriction products were ligated using T4 DNA ligase at 16° C. overnight. Following ligation, PstI and SmaI digestions were used to linearize the vector without insert DNA. The DNA from this selection digestion was used for transformation of E. coli strain JM105 (Amersham Pharmacia Biotech Inc., Piscataway, N.J.) using selection for Ampicillin resistance. Plasmid DNA from individual transformants was digested with EcoRI and HindIII. […] This plasmid and others were placed in various host strains by transformation and selection for Ampicillin resistance.

[7] = tested on: E. coli strain DPD2462 (DPD2444 yhcP− with pKK223-3 control plasmid); assay: as above
Excerpt: as §1, §2

[8] = tested on: E. coli strain DPD2463 (DPD2444 yhcP− with pDEW659 yhcP); assay: as above
Excerpt: as §1, §2

[9] = tested on: E. coli strain DPD2464 (DPD2444 yhcP− with pDEW673 yhcQP); assay: as above
Excerpt: as §1, §2

[10] = tested on: E. coli strain DPD2465 (DPD2444 yhcP− with pDEW675 yhcRQ); assay: as above
Excerpt: as §1, §2

[11] = tested on: E. coli strain DPD2466 (DPD2433 yhcS− with pKK223-3 control plasmid); assay: as above
Excerpt: as §1, §2

[12] = tested on: E. coli strain DPD2467 (DPD2433 yhcS− with pDEW659 yhcP); assay: as above
Excerpt: as §1, §2

[13] = tested on: E. coli DPD1818 (tolC−) with pDEW668 (yhcRQP); assay: pHBA MIC, 3:4 dilutions, Vogel-Bonner medium with 0.4% glucose; conditions: Escherichia coli, 21 h, read-out: pHBA MIC
Excerpt: (§3) An additional experiment is consistent with the above conclusion. This experiment used E. coli strain MG1655 and strains derived from it, DPD1818 (described above in this example) with a to/C::miniTn10 mutation, […] (described in example 3) with a yhcS::TN<Kan> mutation, and DPD2435 that carries both the to/C::miniTn10 and yhcS::TN<Kan> mutations. The latter strain was constructed using P1clr100Cm mediated transduction of DE112 with phage grown on strain DPD2410 (described in Example 3) and selection for kanamycin resistance. These four strains were each transformed with plasmids pTrcHis2TOPO®/lacZ (Invitrogen) for a control and pDEW668 that expresses the yhcRQP operon (described in Example 2). […] Vogel-Bonner minimal medium with 0.4% glucose was used. […] The inoculum was 50 μl of a 1:500 dilution into Vogel-Bonner medium with 0.4% glucose as a carbon source of overnight cultures of each of the plasmid-containing strains grown in the same medium except with addition of 25 μg/ml Ampicillin.

[14] = tested on: E. coli DPD1818 (tolC−) with pTrcHis2TOPO®/lacZ (control); assay: as above; conditions: Escherichia coli, 21 h, read-out: pHBA MIC
Excerpt: as §3

[15] = tested on: E. coli DPD2433 (yhcS−) with pDEW668 (yhcRQP); assay: as above; conditions: Escherichia coli, 21 h, read-out: pHBA MIC
Excerpt: as §3

[16] = tested on: E. coli DPD2433 (yhcS−) with pTrcHis2TOPO®/lacZ (control); assay: as above; conditions: Escherichia coli, 21 h, read-out: pHBA MIC
Excerpt: as §3

[17] = tested on: E. coli DPD2435 (yhcS−, tolC−) with pDEW668 (yhcRQP); assay: as above; conditions: Escherichia coli, 21 h, read-out: pHBA MIC
Excerpt: as §3

[18] = tested on: E. coli DPD2435 (yhcS−, tolC−) with pTrcHis2TOPO®/lacZ (control); assay: as above; conditions: Escherichia coli, 21 h, read-out: pHBA MIC
Excerpt: as §3

[19] = tested on: E. coli MG1655 (+) with pDEW668 (yhcRQP); assay: as above; conditions: Escherichia coli, MG1655, 21 h, read-out: pHBA MIC
Excerpt: as §3

[20] = tested on: E. coli MG1655 (+) with pTrcHis2TOPO®/lacZ (control); assay: as above; conditions: Escherichia coli, read-out: pHBA MIC, control plasmid, 21 hours at 37° C., sodium salt, highest tested 100 mM
Excerpt: as §3

[21] = Vogel-Bonner 0.4% glucose, average of two experiments

Q: What does the source list for `O=C(O)c1ccc(O)cc1` [pHBA, para-hydroxybenzoic acid]?
A: degree of growth within the pHBA zone of growth inhibition (E. coli strain MG1655): turbid; pHBA zone of growth inhibition, mm diameter (E. coli strain MG1655; average of two experiments): 9.5 mm; degree of growth within the pHBA zone of growth inhibition [1]: clear; pHBA zone of growth inhibition, mm diameter ([1]; average of two experiments): 20.2 mm; clarity of pHBA zone of growth inhibition [2]: turbid; pHBA zone of growth inhibition, mm diameter [2, 21]: 9.5 mm; clarity of pHBA zone of growth inhibition [3]: slightly turbid; pHBA zone of growth inhibition, mm diameter [3, 21]: 17.0 mm; clarity of pHBA zone of growth inhibition [4]: clear; pHBA zone of growth inhibition, mm diameter [4, 21]: 23.5 mm; clarity of pHBA zone of growth inhibition [5]: turbid; pHBA zone of growth inhibition, mm diameter [5, 21]: 9.8 mm; clarity of pHBA zone of growth inhibition [6]: turbid; pHBA zone of growth inhibition, mm diameter ([6]; tested as for Table 8): 10.0 mm; clarity of pHBA zone of growth inhibition [7]: clear; pHBA zone of growth inhibition, mm diameter ([7]; tested as for Table 8): 22.8 mm; clarity of pHBA zone of growth inhibition [8]: turbid; pHBA zone of growth inhibition, mm diameter ([8]; tested as for Table 8): 10.5 mm; clarity of pHBA zone of growth inhibition [9]: turbid; pHBA zone of growth inhibition, mm diameter ([9]; tested as for Table 8): 9.8 mm; clarity of pHBA zone of growth inhibition [10]: clear; pHBA zone of growth inhibition, mm diameter ([10]; tested as for Table 8): 21.8 mm; clarity of pHBA zone of growth inhibition [11]: clear; pHBA zone of growth inhibition, mm diameter ([11]; tested as for Table 8): 19.2 mm; clarity of pHBA zone of growth inhibition [12]: clear; pHBA zone of growth inhibition, mm diameter ([12]; tested as for Table 8): 18.8 mm; MIC [13]: 100 mM (≈ 13.8 mg/mL); MIC [14]: 56 mM (≈ 7.73 mg/mL); MIC [15]: 100 mM (≈ 13.8 mg/mL); MIC [16]: 18 mM (≈ 2.49 mg/mL); MIC [17]: 100 mM (≈ 13.8 mg/mL); MIC [18]: 13 mM (≈ 1.8 mg/mL); MIC [19]: 100 mM (≈ 13.8 mg/mL); MIC [20]: 100 mM
